Laboratory results taken from patent US20210121527A1, “METHODS OF TREATING MINIMAL RESIDUAL CANCER” (ICAHN SCHOOL OF MEDICINE AT MOUNT SINAI, priority 2018, published 2021).

What was measured:
[1] = target: T1, PERK (Homo sapiens, UniProt Q9NZJ5); experiment: Cell-based TR-FRET assay of tunicamycin-induced eIF2a phosphorylation in 293 cells
T1 construct: endogenous in cells; host or cells: GripTite 293 cells expressing GFP-eIF2a
T1 sequence (Q9NZJ5 30-1116): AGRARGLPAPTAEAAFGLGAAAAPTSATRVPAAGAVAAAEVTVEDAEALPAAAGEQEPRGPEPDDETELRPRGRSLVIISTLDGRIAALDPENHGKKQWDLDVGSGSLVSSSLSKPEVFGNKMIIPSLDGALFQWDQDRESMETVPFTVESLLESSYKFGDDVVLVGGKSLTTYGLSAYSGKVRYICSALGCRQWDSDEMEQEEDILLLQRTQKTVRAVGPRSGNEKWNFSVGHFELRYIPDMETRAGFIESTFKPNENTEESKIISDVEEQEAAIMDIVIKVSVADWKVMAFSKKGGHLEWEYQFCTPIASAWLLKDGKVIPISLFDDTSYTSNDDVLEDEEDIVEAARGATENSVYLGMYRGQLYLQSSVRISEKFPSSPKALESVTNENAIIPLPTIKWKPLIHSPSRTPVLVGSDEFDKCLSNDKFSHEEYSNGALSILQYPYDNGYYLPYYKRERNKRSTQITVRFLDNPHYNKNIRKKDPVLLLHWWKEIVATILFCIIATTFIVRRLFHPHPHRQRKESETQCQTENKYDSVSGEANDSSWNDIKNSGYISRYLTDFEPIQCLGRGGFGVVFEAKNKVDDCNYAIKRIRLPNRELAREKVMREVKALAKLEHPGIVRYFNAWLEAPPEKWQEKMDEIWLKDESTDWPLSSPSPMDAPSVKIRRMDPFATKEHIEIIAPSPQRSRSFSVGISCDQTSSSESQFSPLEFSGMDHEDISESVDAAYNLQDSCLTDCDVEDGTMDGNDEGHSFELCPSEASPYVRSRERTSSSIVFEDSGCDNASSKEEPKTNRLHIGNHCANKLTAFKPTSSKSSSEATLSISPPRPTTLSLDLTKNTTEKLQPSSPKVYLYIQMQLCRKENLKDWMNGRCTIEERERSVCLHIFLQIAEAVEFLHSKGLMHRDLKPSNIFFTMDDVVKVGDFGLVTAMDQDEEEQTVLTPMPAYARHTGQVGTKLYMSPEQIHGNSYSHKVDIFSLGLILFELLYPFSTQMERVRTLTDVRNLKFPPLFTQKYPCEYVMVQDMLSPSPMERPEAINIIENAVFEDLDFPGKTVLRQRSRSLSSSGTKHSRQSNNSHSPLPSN
Experimental: Cell-based TR-FRET assay: Briefly, GripTite™ 293 cells (Invitrogen) expressing GFP-eIF2a were seeded at 10,000 cells per well in 384-well plates and allowed to attach overnight. Cells were pre-treated with test compounds for 1 hour. Tunicamycin (1 μM) was added to induce PERK activity and the plates were incubated at 37° C. for 2 hours. The culture media was removed and the cells were lysed in buffer consisting of 20 mM Tris-HCl, pH 7.5, 150 mM NaCl, 5 mM EDTA, 1% NP-40, 5 mM NaF, Protease inhibitors (Sigma Cat # P8340), Phosphatase inhibitors (Sigma Cat # P2850), and 2 nM Terbium-labelled anti-phospho-eIF2 antibody (Invitrogen Cat # PM43121). Cell lysates were incubated for 2 hours in the dark at room temperature and fluorescence was monitored in an EnVison® Multilabel reader (PerkinElmer, Waltham, Mass.).

[2] = target: T2, Recombinant human EIF2AK3 (PERK) catalytic domain (Homo sapiens, UniProt Q9NZJ5); experiment: PERK biochemical TR-FRET kinase assay using purified eIF2a as substrate; conditions: read-out: PERK Enzyme IC50
T2 construct: catalytic domain (amino acids 536-1116; Cat # PV5107); purchased Invitrogen (Carlsbad, Calif.) PV5107
T2 sequence (Q9NZJ5 536-1116): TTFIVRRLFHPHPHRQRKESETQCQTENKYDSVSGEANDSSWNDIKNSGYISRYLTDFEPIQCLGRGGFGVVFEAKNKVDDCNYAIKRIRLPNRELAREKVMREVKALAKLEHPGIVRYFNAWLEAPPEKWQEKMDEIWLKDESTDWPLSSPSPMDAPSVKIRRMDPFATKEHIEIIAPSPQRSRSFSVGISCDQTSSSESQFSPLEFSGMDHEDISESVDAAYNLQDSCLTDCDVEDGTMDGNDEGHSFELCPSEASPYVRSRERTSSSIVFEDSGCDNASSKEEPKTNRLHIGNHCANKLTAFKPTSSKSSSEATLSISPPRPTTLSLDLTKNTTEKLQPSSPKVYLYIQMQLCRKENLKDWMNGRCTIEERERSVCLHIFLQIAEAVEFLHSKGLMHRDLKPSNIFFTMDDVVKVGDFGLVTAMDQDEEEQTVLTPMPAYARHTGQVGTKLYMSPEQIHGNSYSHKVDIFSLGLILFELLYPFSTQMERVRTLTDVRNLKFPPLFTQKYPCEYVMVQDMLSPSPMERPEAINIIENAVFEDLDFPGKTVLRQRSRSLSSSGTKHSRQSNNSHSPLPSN
Experimental: (§1) TR-FRET kinase assays were performed in the absence or presence of inhibitors in a reaction buffer consisting of 50 mM HEPES, pH 7.5, 10 mMMgCl2, 1.0 mM EGTA, and 0.01% Brij-35, and 100-200 nM GFP-eIF2a substrate. […] Following the addition of test compound, the reaction was initiated by addition of enzyme and incubated at room temperature for 45 minutes. The reaction was stopped by addition of EDTA to a final concentration of 10 mM and Terbium-labelled phospho-eIF2α antibody was added at a final concentration of 2 nM and incubated for 90 minutes. The resulting fluorescence was monitored in an EnVison® Multilabel reader (PerkinElmer, Waltham, Mass.). TR-FRET ratios and the resulting IC50 values were determined from the fitted inhibition curves. Biochemical specificity profiling was performed at Cerep (Redmond, Wash.) and DiscoverX (San Diego, Calif.).

[3] = target: T3, GCN2 catalytic domain (Homo sapiens, UniProt Q9P2K8); experiment: GCN2 biochemical TR-FRET kinase assay using purified eIF2a as substrate; conditions: read-out: GCN2 Enzyme IC50
T3 construct: HIS-SUMO-GCN2 catalytic domain (amino acids 584-1019); HIS (N); SUMO (N); made in house; host or cells: E. coli
T3 sequence (Q9P2K8 584-1019): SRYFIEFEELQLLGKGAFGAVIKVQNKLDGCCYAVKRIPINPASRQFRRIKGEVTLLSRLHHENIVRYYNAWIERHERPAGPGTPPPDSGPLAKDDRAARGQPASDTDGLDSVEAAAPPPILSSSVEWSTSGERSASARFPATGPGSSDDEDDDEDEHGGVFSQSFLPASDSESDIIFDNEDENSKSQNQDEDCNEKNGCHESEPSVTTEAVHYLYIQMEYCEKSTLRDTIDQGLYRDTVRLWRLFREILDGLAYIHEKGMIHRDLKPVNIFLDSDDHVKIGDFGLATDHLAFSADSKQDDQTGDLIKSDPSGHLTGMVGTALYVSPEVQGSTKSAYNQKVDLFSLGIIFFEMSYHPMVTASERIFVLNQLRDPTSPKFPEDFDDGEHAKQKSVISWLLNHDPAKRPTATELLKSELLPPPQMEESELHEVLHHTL
Experimental: as §1

SMILES: Cc1cccc(CC(=O)N2CCc3c2ccc(-c2cn(C)c4ncnc(N)c24)c3F)n1 [GSK2656157, reference compound]
- IC50 [1]: 36 nM
- IC50 [2]: 8 nM
- IC50 [3]: > 200000 nM

SMILES: CNC(=O)c1nc(-c2ccc(NC(=O)[C@H](O)c3cc(F)cc(F)c3)cc2C)cnc1N [LY2, 3-amino-6-[4-[[(2R)-2-(3,5-difluorophenyl)-2-hydroxy-acetyl]amino]-2-methyl-phenyl]-N-methyl-pyrazine-2-carboxamide]
- IC50 [1]: 117 nM
- IC50 [2]: 2 nM
- IC50 [3]: 10800 nM

SMILES: Cc1cc(NC(=O)[C@H](O)c2cccc(F)c2)ccc1-c1cn(C)c2ncnc(N)c12 [LY3, (2R)-N-[4-(4-amino-7-methyl-pyrrolo[2,3-d]pyrimidin-5-yl)-3-methyl-phenyl]-2-(3-fluorophenyl)-2-hydroxy-acetamide]
- IC50 [1]: 26 nM
- IC50 [2]: 2 nM
- IC50 [3]: 16400 nM

SMILES: Cc1cc(NC(=O)[C@H](O)c2cc(F)cc(F)c2)ccc1-c1cnc(N)c(C(=O)NC(C)C)c1 [LY4, 2-amino-5-[4-[[(2R)-2-(3,5-difluorophenyl)-2-hydroxy-acetyl]amino]-2-methyl-phenyl]-N-isopropyl-pyridine-3-carboxamide]
- IC50 [1]: 54 nM
- IC50 [2]: 2 nM
- IC50 [3]: 18100 nM
